This passage reports Activity and MIC results from ChEMBL document CHEMBL1159197, “Novel bromopyrrole alkaloids from the sponge Agelas dispar” (1998).

Test [1] has as its system Aspergillus niger. Description: Antimicrobial activity against Aspergillus niger. It counts as functional, organism-based.
Test [2] deals with Bacillus subtilis. The experiment in a line: Antimicrobial activity against Bacillus subtilis ATCC 6633. The test is classed as functional.
Test [3] deals with Staphylococcus aureus. Description: Antimicrobial activity against Staphylococcus aureus ATCC 6538. It counts as functional.

Values after ≈ are worked out from the molar mass of the structure shown. Active and inactive are the calls of the source.

In the case of `C[N+]1=CNC[C@]1(C)C[C@@H](NC(=O)c1cc(Br)c[nH]1)C(=O)[O-]`, in test [1], the result was Active.

`C[C@]1(C[C@@H](NC(=O)c2cc(Br)c[nH]2)C(=O)O)CNC=N1`: the result in test [2] and in test [3] was inactive. Also, the outcome in test [1] was Active.

Take `C[C@]1(C[C@H](NC(=O)c2cc(Br)c[nH]2)C(=O)O)CNC=N1`: the result in test [2] and in test [3] was inactive. The outcome in test [1] was Active.

As to `O=C(O)C[C@H]1CNC(=O)c2cc(Br)c(Br)n21` [LONGAMIDE B], the MIC – broadly, the smallest concentration in the dilution series that meets the test's criterion for growth inhibition – in test [2] is 45 µg/mL (≈ 128 µM); in test [3], 55 µg/mL (≈ 156 µM).

For `Cn1c(/C=C\CNC(=O)c2cc(Br)c[nH]2)cnc1N` [KERAMADINE], the MIC in test [2] amounted to 40 µg/mL (≈ 123 µM); in test [3] it was 35 µg/mL (≈ 108 µM).

Consider `C[N+]1=CNC[C@]1(C)C[C@H](NC(=O)c1cc(Br)c[nH]1)C(=O)[O-]`, for which the result in test [1] was Active.
